Where two headings read alike, the source gives them in different places.

For data set [1], the system named is Salmonella typhimurium (TA 100). Briefly: Test 3: detoxification of the reference glycotoxin methyl-glyoxal (MGO), Ames pre-incubation test. It is filed as cell-based. As to the method:
[…] The resulting mixture was incubated 30 minutes at 37° C. under orbital stirring (122 rpm).
(§1) The counting of colonies was then achieved manually.
In addition to the N-((4-imidazolyl)ethyl)-α, β-diaminopropanamide compound, the following compounds according to the invention were also tested at different concentrations: • N-((4-hydroxyphenyl)ethyl)-α,β-diaminopropanamide • N-((4-imidazolyl)ethyl)-α,γ-diaminobutanamide • N-((3,4-dihydroxyphenyl)ethyl)-α,β-diaminopropanamide • N-((4-imidazolyl)ethyl)-L-lysinamide
The results are gathered in table 3 below, compared to the PBS phosphate buffer (negative control).

Data set [2] has the same test system. As to the kind of experiment: Test 2: detoxification of glycotoxins released by fructosylated casein, Ames pre-incubation test without metabolic activator. It is filed as cell-based. As to conditions: for Number of revertants: TA 100, PBS control 84.
Description: The study was achieved on a Salmonella typhimurium (TA 100) bacterial strain which belongs to reference strains used for the Ames regulatory test (ICH steering committee, Jul. 19, 1995, Guidance on specific aspect of regulatory genotoxicity tests for pharmaceuticals). The objective was to determine, in the mutated strains' colonies, the number of revertant colonies which are representative of mutagenesis in casein-fructose system, with or without a compound according to the invention.
Experimentally, 2.7 g of D-(+)-fructose were solubilized at room temperature in 100 mL of phosphate buffer. After collecting 20 g of the colourless limpid solution (Cfructose=150 mM), 0.600 g of sodium caseinate were introduced until complete dissolution. The solution was then introduced in 2×10mL in screw-top test tubes, then placed in an oil bath at 120° C. during 1 h.
To different concentrations (400 μl) of compound according to the invention were successively added 500 μl of glycated casein and 100 μl of the above-mentioned bacterial suspension. The resulting mixture was incubated 30 minutes at 37° C. under orbital stirring (122 rpm).
as §1
The results are presented in table 2 below, compared to a negative control (PBS phosphate buffer).

Data set [3] has as its system purified histones, enriched with H1 histones. Briefly: Test 1: protection of histones towards methyl-glyoxal (MGO), fluorimetry of the dialyzed mixture. It is filed as biochemical. As to conditions: for RFU (fluorescence of dialyzed mixture, indicative of histone damage by MGO): compound 10 mM + histones + MGO 10 mM, 24 h at 37° C., excitation 340 nm, emission 470 nm, control histones + MGO 62231; for formation of non-enzymatic glycosylation products from reaction of glycotoxin with histones: result in words. As to the method: A solution of purified histones (5 mg/l), enriched with H1 histones, was incubated in the presence of the reference glycotoxin MGO (10 mM) during 24 h at 37° C. under stirring. In order to follow specifically fluorescence of products from non-enzymatic glycosylation of histones, it was necessary to get rid of MGO fluorescence as well as the one of the glycotoxin-trapper products. For this, the reaction mixture was dialyzed. Then it was introduced in a dialysis tape and three successive 3 hour-baths were run, each one in a NaH2PO4 buffer solution (83.3 mM) in which MGO was diluted. Dialyzed mixture fluorescence which was indicative of the damage of histones made by reaction with MGO (adduct formation) was measured by fluorimetry (λ excitation: 340 nm; λ emission: 470 nm). The measure unit corresponds to RFU (for “Relative Fluorescence Unit”).

For data set [4], the system named is Salmonella typhimurium (TA 100). The following applies: positive control; PBS control 88.
Description: The study was carried out according to an almost-identical manner to the here-above test 2, with however D-glucose replacing D-(+)-fructose and according to following conditions. Experimentally, 18.02 g of D-glucose were solubilized at room temperature in 100 mL of water. 10 mL of the solution corresponding to 10 mM of the compound according to the invention, N-((4-imidazolyl)ethyl)-α,β-diamino-propanamide, were sampled and introduced after a pH adjustment by sodium hydroxide. The resulting reaction mixture was then introduced in a screw-top test tube, then heated at 100° C. for 80 minutes.
In parallel, the TA 100 strain was cultured in the Nutrient Broth Oxoid N° 2 (NBO2) supplemented with Ampicilline. The culture was placed overnight at 37° C. in an orbital shaker (88 rpm) so that bacteria were in growth exponential phase (10^7 to 10^9 bacteria/ml).
100 μl of test solution were added to 100 μl of the above-mentioned bacterial suspension and to 500 μl of PBS phosphate buffer, the resulting mixture being incubated 1 h at 37° C. under orbital stirring (122 rpm). 2 ml of soft-agar supplemented in biotin histidine and maintained at 45° C. were added. After mixing with Vortex, they were deposited in a Petri dish containing Vogel-Bonner hard-agar. After solidification, dishes were transferred in the incubator at 37° C. during 48-72 h. […]
[5] abbreviates: compound 75 μM + methyl-glyoxal 140 μM, PBS control 91, MGO alone 161.
Setting [6] is: compound 750 μM + methyl-glyoxal 140 μM, PBS control 91, MGO alone 161.

As to `CC(=O)C=O` [Methyl-glyoxal, methyl-glyoxal, reference compound], the Number of revertants in data set [1] (methyl-glyoxal alone 140 μM, PBS control 91) worked out at 161; in data set [1] (methyl-glyoxal alone 280 μM, PBS control 72), 308.

Regarding `NCC(N)C(=O)NCCc1ccc(O)c(O)c1` (stereo not drawn) [N-((3,4-dihydroxyphenyl)ethyl)-α,β-diaminopropanamide], the Number of revertants in data set [1] (setting [5]) stood at 161; in data set [1] (setting [6]), 111.

Consider `NCC(N)C(=O)NCCc1ccc(O)cc1` (stereo not drawn) [N-((4-hydroxyphenyl)ethyl)-α,β-diaminopropanamide], for which the Number of revertants in data set [1] (setting [5]) was 152.

As for `NCCCC[C@H](N)C(=O)NCCc1c[nH]cn1` [N-((4-imidazolyl)ethyl)-L-lysinamide], the Number of revertants in data set [1] (setting [5]) is 141; in data set [1] (setting [6]) it was 132.

`NCC(N)C(=O)NCCc1c[nH]cn1` (stereo not drawn) [N-((4-imidazolyl)ethyl)-α,β-diaminopropanamide]: the RFU in data set [2] (compound 7.5 mM + fructosylated casein, PBS control = 1) is reported as 1.42 RFU. The Number of revertants was determined as 119 in data set [2] (compound 7.5 mM + fructosylated casein); 93 in data set [2] (compound 15 mM + fructosylated casein); 141 in data set [1] (compound 75 μM + methyl-glyoxal 280 μM, PBS control 72, MGO alone 308); 95 in data set [1] (compound 750 μM + methyl-glyoxal 280 μM, PBS control 72, MGO alone 308). The “revertant count relative to PBS control” value in data set [2] (compound 15 mM + fructosylated casein, PBS control = 1) is on record as 1.11 RFU. In addition, in data set [2] (result in words, dose-effect relationship observed), the “toxicity of the formed glycotoxins” value is recorded as “strongly decrease”. Also, the “RFU (fluorescence of dialyzed mixture, indicative of histone damage by MGO)” value in data set [3] came to 20441 RFU. Besides, the “formation of non-enzymatic glycosylation products from reaction of glycotoxin with histones” value in data set [3] is on record as “strongly decrease”.

For `NCCC(N)C(=O)NCCc1c[nH]cn1` (stereo not drawn) [N-((4-imidazolyl)ethyl)-α,γ-diaminobutanamide], the Number of revertants in data set [1] (setting [5]) is recorded as 154; in data set [1] (setting [6]) it was 116. For the same compound, in data set [3], the “RFU (fluorescence of dialyzed mixture, indicative of histone damage by MGO)” value came to 21526 RFU. In addition, in data set [3], the “formation of non-enzymatic glycosylation products from reaction of glycotoxin with histones” value is given as “strongly decrease”.

In data set [4], `[N-]=[N+]=[N-]` [NaN3, sodium azide] showed a Number of revertants of 211.
